Each structure is given as a SMILES string.

Regarding `CCCCC(C)(C)C`, the log10 OH rate constant (cm³/molecule/s) (25.0 °C) is -11.3.

`CNC`: the log10 OH rate constant (cm³/molecule/s) (25.0 °C) was -10.2.

Where the note is “25.0 °C”, `C1CCCOCC1` had a log10 OH rate constant (cm³/molecule/s) of -10.8.

Take `Clc1ccc(Cl)c2ccccc12`: the log10 OH rate constant (cm³/molecule/s) (25.0 °C) was -11.2.

Under “25.0 °C”, `CCc1ccccc1C` registered a log10 OH rate constant (cm³/molecule/s) of -10.9.

As for `CC(O)CO` (stereo not given), the log10 OH rate constant (cm³/molecule/s) (25.0 °C) was -10.9.

For the compound `Clc1ccccc1`, for the setting “25.0 °C”, the log10 OH rate constant (cm³/molecule/s) is -12.1.

For the compound `C=CF`, the log10 OH rate constant (cm³/molecule/s) (25.0 °C) is -11.3.

`CC(=O)C(C)(C)C` came in with a log10 OH rate constant (cm³/molecule/s) (25.0 °C) of -11.9.

On to `FC(F)(F)c1ccc(Cl)cc1`, for which the log10 OH rate constant (cm³/molecule/s) (25.0 °C) is -12.6.

`C1=CCCCC=C1`: the log10 OH rate constant (cm³/molecule/s) (25.0 °C) was -9.86.

The compound `Cc1ccc(C)c(C)c1` yielded a log10 OH rate constant (cm³/molecule/s) (25.0 °C) of -10.5.

On to `OCCO`, for which the log10 OH rate constant (cm³/molecule/s) (25.0 °C) was -11.1.

In the case of `CC(C)C(C)C`, the log10 OH rate constant (cm³/molecule/s) (25.0 °C) is -11.2.

`C1=CC=CCC=C1` yielded a log10 OH rate constant (cm³/molecule/s) (25.0 °C) of -10.

On to `CC(C)C(=O)C(C)C`, for which the log10 OH rate constant (cm³/molecule/s) (25.0 °C) was -11.3.

In turn, `Oc1cccc(Cl)c1Cl` gave a log10 OH rate constant (cm³/molecule/s) (25.0 °C) of -11.8.

On to `CCCCC`, for which the log10 OH rate constant (cm³/molecule/s) (25.0 °C) was -11.4.

Take `C1=CC2C=CC1C2`: the log10 OH rate constant (cm³/molecule/s) (25.0 °C) is -9.92.

Turning to `Cc1cccc(O)c1`, the log10 OH rate constant (cm³/molecule/s) (25.0 °C) was -10.2.

As for `CCCSCCC`, the log10 OH rate constant (cm³/molecule/s) (25.0 °C) is -10.7.

`C1OCOCO1`: the log10 OH rate constant (cm³/molecule/s) (25.0 °C) is -11.2.

For the compound `CC(=O)OCC(C)C`, the log10 OH rate constant (cm³/molecule/s) (25.0 °C) was -11.3.

`CC1=CCCCC1` registered a log10 OH rate constant (cm³/molecule/s) (25.0 °C) of -10.

Compound `CN(C)C` returned a log10 OH rate constant (cm³/molecule/s) (25.0 °C) of -10.2.

The compound `C1CCCCC1` had a log10 OH rate constant (cm³/molecule/s) (25.0 °C) of -11.1.

On to `C=C(C)c1ccccc1`, for which, under “25.0 °C”, the log10 OH rate constant (cm³/molecule/s) is -10.3.

Under “25.0 °C”, `O=[N+]([O-])c1ccccc1` registered a log10 OH rate constant (cm³/molecule/s) of -12.9.

In turn, `CCOC(C)(C)OCC` displayed a log10 OH rate constant (cm³/molecule/s) (25.0 °C) of -10.9.

Under “25.0 °C”, `C=CCCCCC` displayed a log10 OH rate constant (cm³/molecule/s) of -10.4.

Regarding `C=CCCl`, the log10 OH rate constant (cm³/molecule/s) (25.0 °C) was -10.8.

Turning to `CC1CO1` (stereo not given), for the setting “25.0 °C”, the log10 OH rate constant (cm³/molecule/s) is -12.3.

On to `c1ccc2c(c1)CCC2`, for which the log10 OH rate constant (cm³/molecule/s) (25.0 °C) is -11.

`Oc1ccccc1` yielded a log10 OH rate constant (cm³/molecule/s) (25.0 °C) of -10.6.

`CCC(C)CC`: under “25.0 °C”, the log10 OH rate constant (cm³/molecule/s) is -11.2.

Where the note is “25.0 °C”, `CN(C)c1ccccc1` had a log10 OH rate constant (cm³/molecule/s) of -9.83.

On to `FCCF`, for which, under “25.0 °C”, the log10 OH rate constant (cm³/molecule/s) was -13.

Where the note is “25.0 °C”, `Brc1ccccc1` came in with a log10 OH rate constant (cm³/molecule/s) of -12.1.

As for `Cc1cccc(C)c1C`, under “25.0 °C”, the log10 OH rate constant (cm³/molecule/s) was -10.5.

For `Cc1ccc(N)cc1N`, the log10 OH rate constant (cm³/molecule/s) (25.0 °C) was -9.72.

Take `CC1=CCC(C(C)C)C=C1` (stereo not given): the log10 OH rate constant (cm³/molecule/s) (25.0 °C) was -9.5.

`CC=O` yielded a log10 OH rate constant (cm³/molecule/s) (25.0 °C) of -10.8.

`CCC(C)OC(C)=O` (stereo not given): the log10 OH rate constant (cm³/molecule/s) (25.0 °C) is -11.3.

`COCCOCCOC`: the log10 OH rate constant (cm³/molecule/s) (25.0 °C) was -10.8.

`CC(C)C=O` showed a log10 OH rate constant (cm³/molecule/s) (25.0 °C) of -10.6.

Regarding `C=CC=CC=C`, the log10 OH rate constant (cm³/molecule/s) (25.0 °C) was -10.3.

For the setting “25.0 °C”, `CC(C)C(C)(C)C` returned a log10 OH rate constant (cm³/molecule/s) of -11.4.

Regarding `CCc1ccc(C)cc1`, the log10 OH rate constant (cm³/molecule/s) (25.0 °C) was -10.9.

Where the note is “25.0 °C”, `C=CBr` came in with a log10 OH rate constant (cm³/molecule/s) of -11.2.

In the case of `FC(F)=C(Cl)Cl`, the log10 OH rate constant (cm³/molecule/s) (25.0 °C) is -11.1.

Compound `CCC(C)=O` registered a log10 OH rate constant (cm³/molecule/s) (25.0 °C) of -11.9.

With `OCCCl`, for the setting “25.0 °C”, the log10 OH rate constant (cm³/molecule/s) was -11.9.

Under “25.0 °C”, `CC(C)(C)O` showed a log10 OH rate constant (cm³/molecule/s) of -12.

For the setting “25.0 °C”, `CCN(O)CC` gave a log10 OH rate constant (cm³/molecule/s) of -10.

On to `CCC(C)C`, for which the log10 OH rate constant (cm³/molecule/s) (25.0 °C) was -11.4.

Consider `Oc1ccc(Cl)cc1Cl`, for which the log10 OH rate constant (cm³/molecule/s) (25.0 °C) is -12.

Turning to `CF`, the log10 OH rate constant (cm³/molecule/s) (25.0 °C) is -13.8.

Where the note is “25.0 °C”, `ClCCl` displayed a log10 OH rate constant (cm³/molecule/s) of -12.8.

Compound `CC(C)C(C)O` (stereo not given) returned a log10 OH rate constant (cm³/molecule/s) (25.0 °C) of -10.9.

For the setting “25.0 °C”, `c1cocn1` registered a log10 OH rate constant (cm³/molecule/s) of -11.

`C=C` displayed a log10 OH rate constant (cm³/molecule/s) (25.0 °C) of -11.1.

The compound `Ic1ccccc1` showed a log10 OH rate constant (cm³/molecule/s) (25.0 °C) of -12.

Turning to `CCCC`, for the setting “25.0 °C”, the log10 OH rate constant (cm³/molecule/s) is -11.6.

Under “25.0 °C”, `CCCCCCCC` gave a log10 OH rate constant (cm³/molecule/s) of -11.1.

`C#CCCC` had a log10 OH rate constant (cm³/molecule/s) (25.0 °C) of -11.

The compound `CCCCS` had a log10 OH rate constant (cm³/molecule/s) (25.0 °C) of -10.3.

In the case of `COCCC(OC)OC`, the log10 OH rate constant (cm³/molecule/s) (25.0 °C) was -10.7.

`ClCc1ccccc1` registered a log10 OH rate constant (cm³/molecule/s) (25.0 °C) of -11.5.

On to `CS`, for which the log10 OH rate constant (cm³/molecule/s) (25.0 °C) is -10.5.

Where the note is “25.0 °C”, `COC(C)OC` registered a log10 OH rate constant (cm³/molecule/s) of -11.1.

Turning to `C1C2CC3CC1CC(C2)C3`, the log10 OH rate constant (cm³/molecule/s) (25.0 °C) is -10.6.

Consider `Clc1ccc(Cl)cc1`, for which the log10 OH rate constant (cm³/molecule/s) (25.0 °C) is -12.5.

`Cc1ccoc1` gave a log10 OH rate constant (cm³/molecule/s) (25.0 °C) of -10.

For the compound `FCCl`, the log10 OH rate constant (cm³/molecule/s) (25.0 °C) was -13.4.

In the case of `C=CC=C`, the log10 OH rate constant (cm³/molecule/s) (25.0 °C) was -10.2.

Regarding `C1COCOC1`, the log10 OH rate constant (cm³/molecule/s) (25.0 °C) was -11.

In the case of `CC(C)COCC(C)C`, the log10 OH rate constant (cm³/molecule/s) (25.0 °C) was -10.6.

The compound `CCCc1ccccc1` returned a log10 OH rate constant (cm³/molecule/s) (25.0 °C) of -11.2.

For the compound `CC`, the log10 OH rate constant (cm³/molecule/s) (25.0 °C) was -12.6.

The compound `COP(N)(=S)OC` gave a log10 OH rate constant (cm³/molecule/s) (25.0 °C) of -9.61.

`CC(=O)C=O` had a log10 OH rate constant (cm³/molecule/s) (25.0 °C) of -10.8.

`C=C/C=C\C`: the log10 OH rate constant (cm³/molecule/s) (25.0 °C) is -9.99.

On to `C=CC(C)(C)C`, for which the log10 OH rate constant (cm³/molecule/s) (25.0 °C) was -10.5.

Consider `CC#CC`, for which, where the note is “25.0 °C”, the log10 OH rate constant (cm³/molecule/s) was -10.6.

Compound `CC(=O)C(F)(F)F` showed a log10 OH rate constant (cm³/molecule/s) (25.0 °C) of -13.8.

Consider `Nc1ccc(Cl)cc1`, for which the log10 OH rate constant (cm³/molecule/s) (25.0 °C) was -10.4.

Compound `COC(C)CCO` (stereo not given) gave a log10 OH rate constant (cm³/molecule/s) (25.0 °C) of -10.6.

In turn, `CC(C)(N)CO` showed a log10 OH rate constant (cm³/molecule/s) (25.0 °C) of -10.6.

For `Clc1ccccc1Cl`, the log10 OH rate constant (cm³/molecule/s) (25.0 °C) was -12.4.

In turn, `CN` returned a log10 OH rate constant (cm³/molecule/s) (26.0 °C) of -10.7.

For `CC(C)S`, where the note is “25.0 °C”, the log10 OH rate constant (cm³/molecule/s) is -10.4.

`Cc1ccc2ccccc2c1[N+](=O)[O-]` returned a log10 OH rate constant (cm³/molecule/s) (25.0 °C) of less than -11.1.

On to `CC(=O)CC(C)=O`, for which the log10 OH rate constant (cm³/molecule/s) (25.0 °C) is -11.9.

Compound `CCOC=O` returned a log10 OH rate constant (cm³/molecule/s) (25.0 °C) of -12.

Regarding `c1ccc2c(c1)CCCC2`, where the note is “25.0 °C”, the log10 OH rate constant (cm³/molecule/s) is -10.5.

Where the note is “25.0 °C”, `CC(C)=C=O` displayed a log10 OH rate constant (cm³/molecule/s) of -9.97.

Consider `OCc1ccccc1`, for which the log10 OH rate constant (cm³/molecule/s) (25.0 °C) was -10.6.

As to `c1ccsc1`, the log10 OH rate constant (cm³/molecule/s) (25.0 °C) was -11.

As to `CCC(C)S` (stereo not given), under “25.0 °C”, the log10 OH rate constant (cm³/molecule/s) is -10.4.

On to `CC(=O)OC(C)C`, for which the log10 OH rate constant (cm³/molecule/s) (25.0 °C) is -11.5.

In turn, `CC(C)=C(C)C` came in with a log10 OH rate constant (cm³/molecule/s) (25.0 °C) of -9.96.

In turn, `CC(C)C(=O)O` came in with a log10 OH rate constant (cm³/molecule/s) (25.0 °C) of -11.7.

As for `c1ccncc1`, the log10 OH rate constant (cm³/molecule/s) (25.0 °C) was -12.4.

Under “25.0 °C”, `FC(F)(F)F` yielded a log10 OH rate constant (cm³/molecule/s) of less than -15.4.

As for `CCCOC(C)=O`, the log10 OH rate constant (cm³/molecule/s) (25.0 °C) is -11.5.

On to `C1COC1`, for which the log10 OH rate constant (cm³/molecule/s) (25.0 °C) was -11.

With `c1ccccc1`, for the setting “25.0 °C”, the log10 OH rate constant (cm³/molecule/s) is -11.9.

`CCOCCOCCOCC` showed a log10 OH rate constant (cm³/molecule/s) (25.0 °C) of -10.6.

On to `c1ccc(-c2ccccc2)cc1`, for which the log10 OH rate constant (cm³/molecule/s) (25.0 °C) is -11.1.

`Clc1cccc(Cl)c1` came in with a log10 OH rate constant (cm³/molecule/s) (25.0 °C) of -12.1.

The values above are taken from the OPERA property sets (Mansouri et al. 2018).
